Test results: ChEMBL document CHEMBL5291721, “A preclinical secondary pharmacology resource illuminates target-adverse drug reaction associations of marketed drugs” (Nat Commun, 2023)

What was measured:
[1] = molecular target: T1, Retinoic acid receptor beta (Homo sapiens, UniProt P10826); assay type: functional, cell-based
T1 sequence (P10826 whole entry): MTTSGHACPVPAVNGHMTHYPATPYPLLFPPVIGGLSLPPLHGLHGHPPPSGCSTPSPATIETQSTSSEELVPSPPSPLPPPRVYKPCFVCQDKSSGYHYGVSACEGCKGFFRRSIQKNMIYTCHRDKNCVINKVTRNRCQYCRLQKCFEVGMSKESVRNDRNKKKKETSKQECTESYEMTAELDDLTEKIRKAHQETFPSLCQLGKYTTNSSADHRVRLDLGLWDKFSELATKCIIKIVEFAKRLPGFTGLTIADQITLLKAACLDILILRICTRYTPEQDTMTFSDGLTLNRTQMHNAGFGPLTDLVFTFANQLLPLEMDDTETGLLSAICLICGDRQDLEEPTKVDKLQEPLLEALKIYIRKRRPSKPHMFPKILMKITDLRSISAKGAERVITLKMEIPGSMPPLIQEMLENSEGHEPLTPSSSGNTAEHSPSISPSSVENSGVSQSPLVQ

[2] = molecular target: T2, Retinoic acid receptor gamma (Homo sapiens, UniProt P13631); assay type: functional, cell-based
T2 sequence (P13631 whole entry): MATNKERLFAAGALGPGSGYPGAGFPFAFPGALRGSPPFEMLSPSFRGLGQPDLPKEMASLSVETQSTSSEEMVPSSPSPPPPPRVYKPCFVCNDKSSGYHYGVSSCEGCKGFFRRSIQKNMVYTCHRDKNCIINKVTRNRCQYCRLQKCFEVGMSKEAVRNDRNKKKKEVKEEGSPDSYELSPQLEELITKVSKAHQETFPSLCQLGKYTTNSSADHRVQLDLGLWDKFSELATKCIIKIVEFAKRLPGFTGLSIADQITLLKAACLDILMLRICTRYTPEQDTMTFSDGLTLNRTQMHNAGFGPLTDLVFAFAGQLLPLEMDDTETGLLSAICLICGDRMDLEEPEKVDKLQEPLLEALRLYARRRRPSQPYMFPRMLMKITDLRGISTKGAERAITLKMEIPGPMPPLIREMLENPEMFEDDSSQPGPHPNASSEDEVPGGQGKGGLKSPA

Bile acid receptor = molecular target: T3, Bile acid receptor (Homo sapiens, UniProt Q96RI1); assay type: functional
T3 sequence (Q96RI1 whole entry): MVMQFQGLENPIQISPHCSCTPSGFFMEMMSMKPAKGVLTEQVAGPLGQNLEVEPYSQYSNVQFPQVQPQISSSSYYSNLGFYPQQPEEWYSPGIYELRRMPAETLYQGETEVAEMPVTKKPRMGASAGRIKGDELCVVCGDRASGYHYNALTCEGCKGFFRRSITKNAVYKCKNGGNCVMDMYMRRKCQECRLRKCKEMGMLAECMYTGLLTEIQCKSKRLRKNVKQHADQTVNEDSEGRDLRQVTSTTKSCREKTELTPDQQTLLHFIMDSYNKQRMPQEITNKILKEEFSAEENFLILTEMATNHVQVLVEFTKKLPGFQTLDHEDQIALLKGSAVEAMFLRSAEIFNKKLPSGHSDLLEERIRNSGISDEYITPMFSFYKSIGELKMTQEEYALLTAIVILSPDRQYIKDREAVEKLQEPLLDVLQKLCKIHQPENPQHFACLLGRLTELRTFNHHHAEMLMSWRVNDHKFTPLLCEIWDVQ

D(1B) dopamine receptor = D(1B) dopamine receptor (Homo sapiens, UniProt P21918)
Androgen receptor = molecular target: T4, Androgen receptor (Rattus norvegicus, UniProt P15207)
T4 sequence (P15207 whole entry): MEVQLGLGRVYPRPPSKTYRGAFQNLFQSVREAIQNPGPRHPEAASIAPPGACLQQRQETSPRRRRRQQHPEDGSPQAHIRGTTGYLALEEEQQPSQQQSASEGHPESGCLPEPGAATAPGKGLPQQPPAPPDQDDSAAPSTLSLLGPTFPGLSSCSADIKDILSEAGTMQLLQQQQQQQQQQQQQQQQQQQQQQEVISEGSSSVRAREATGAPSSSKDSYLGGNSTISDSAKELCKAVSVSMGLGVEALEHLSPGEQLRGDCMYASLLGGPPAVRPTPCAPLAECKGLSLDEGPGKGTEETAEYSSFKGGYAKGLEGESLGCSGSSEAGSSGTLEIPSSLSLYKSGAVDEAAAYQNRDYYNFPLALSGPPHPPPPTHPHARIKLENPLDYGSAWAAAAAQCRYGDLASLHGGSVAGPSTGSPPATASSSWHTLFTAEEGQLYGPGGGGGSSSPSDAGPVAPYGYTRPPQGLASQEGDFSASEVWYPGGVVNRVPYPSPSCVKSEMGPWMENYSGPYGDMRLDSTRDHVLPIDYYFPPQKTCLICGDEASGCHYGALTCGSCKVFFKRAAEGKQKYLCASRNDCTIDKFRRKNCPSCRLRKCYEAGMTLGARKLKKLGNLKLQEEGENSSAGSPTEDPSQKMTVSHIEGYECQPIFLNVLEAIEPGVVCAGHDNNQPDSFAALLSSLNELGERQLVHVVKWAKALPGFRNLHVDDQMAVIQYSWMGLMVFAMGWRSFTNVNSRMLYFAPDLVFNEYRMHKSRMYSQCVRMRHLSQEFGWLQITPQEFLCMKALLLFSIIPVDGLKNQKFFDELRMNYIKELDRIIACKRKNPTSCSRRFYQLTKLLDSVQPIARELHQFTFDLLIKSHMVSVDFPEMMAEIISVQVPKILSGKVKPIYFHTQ

[3] = molecular target: T5, Muscarinic acetylcholine receptor M4 (Homo sapiens, UniProt P08173)
T5 sequence (P08173 whole entry): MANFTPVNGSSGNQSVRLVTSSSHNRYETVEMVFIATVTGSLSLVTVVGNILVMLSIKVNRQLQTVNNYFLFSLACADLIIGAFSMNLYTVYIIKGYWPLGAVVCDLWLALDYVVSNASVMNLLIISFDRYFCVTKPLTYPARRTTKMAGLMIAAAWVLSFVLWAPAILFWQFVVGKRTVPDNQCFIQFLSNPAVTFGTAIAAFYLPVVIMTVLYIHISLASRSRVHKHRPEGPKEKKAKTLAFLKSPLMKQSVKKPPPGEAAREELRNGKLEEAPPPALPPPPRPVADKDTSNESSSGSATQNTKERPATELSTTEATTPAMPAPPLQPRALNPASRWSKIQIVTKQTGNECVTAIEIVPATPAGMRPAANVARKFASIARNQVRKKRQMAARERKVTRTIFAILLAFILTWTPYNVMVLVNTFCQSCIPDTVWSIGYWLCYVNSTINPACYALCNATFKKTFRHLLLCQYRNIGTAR

[4] = molecular target: 5-hydroxytryptamine receptor 5A (Homo sapiens, UniProt P47898)
[5] = molecular target: 5-hydroxytryptamine receptor 2A (Homo sapiens, UniProt P28223)
Further: assay procedure not described here.

Sequence of D(1B) dopamine receptor (P21918 whole entry): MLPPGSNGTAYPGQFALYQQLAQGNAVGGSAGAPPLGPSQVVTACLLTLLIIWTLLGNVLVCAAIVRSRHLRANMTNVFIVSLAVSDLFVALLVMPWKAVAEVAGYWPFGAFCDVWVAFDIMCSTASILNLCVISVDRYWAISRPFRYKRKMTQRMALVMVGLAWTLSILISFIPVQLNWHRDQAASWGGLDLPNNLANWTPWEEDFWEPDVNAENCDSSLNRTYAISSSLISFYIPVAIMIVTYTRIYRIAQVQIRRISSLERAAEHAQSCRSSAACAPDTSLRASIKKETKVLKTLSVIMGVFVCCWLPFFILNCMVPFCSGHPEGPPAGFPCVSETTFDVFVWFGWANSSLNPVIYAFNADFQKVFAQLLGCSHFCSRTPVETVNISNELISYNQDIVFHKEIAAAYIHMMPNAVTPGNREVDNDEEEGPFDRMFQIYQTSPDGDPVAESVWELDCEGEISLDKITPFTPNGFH
Sequence of 5-hydroxytryptamine receptor 2A (P28223 whole entry): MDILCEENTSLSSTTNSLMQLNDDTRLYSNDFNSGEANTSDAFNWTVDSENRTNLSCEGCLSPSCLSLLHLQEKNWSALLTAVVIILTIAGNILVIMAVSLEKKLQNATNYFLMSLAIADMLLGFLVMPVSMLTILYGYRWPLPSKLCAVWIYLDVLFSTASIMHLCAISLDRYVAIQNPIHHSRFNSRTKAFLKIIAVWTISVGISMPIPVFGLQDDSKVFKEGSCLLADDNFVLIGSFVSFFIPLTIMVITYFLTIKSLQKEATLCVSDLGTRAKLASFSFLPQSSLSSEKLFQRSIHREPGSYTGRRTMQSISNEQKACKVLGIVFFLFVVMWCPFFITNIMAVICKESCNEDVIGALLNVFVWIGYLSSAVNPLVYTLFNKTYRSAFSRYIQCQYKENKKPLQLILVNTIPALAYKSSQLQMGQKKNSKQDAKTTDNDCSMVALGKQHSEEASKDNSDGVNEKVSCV
Sequence of 5-hydroxytryptamine receptor 5A (P47898 whole entry): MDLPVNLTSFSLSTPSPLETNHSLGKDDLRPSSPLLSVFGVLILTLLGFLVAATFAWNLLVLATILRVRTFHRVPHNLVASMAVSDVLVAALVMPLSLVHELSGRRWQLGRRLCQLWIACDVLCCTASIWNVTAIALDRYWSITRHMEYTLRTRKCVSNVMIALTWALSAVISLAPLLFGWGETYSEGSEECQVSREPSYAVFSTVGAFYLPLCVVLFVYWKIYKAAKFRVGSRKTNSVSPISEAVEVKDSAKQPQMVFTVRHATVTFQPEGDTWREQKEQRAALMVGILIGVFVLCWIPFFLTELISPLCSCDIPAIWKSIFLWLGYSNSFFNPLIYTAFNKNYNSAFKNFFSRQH

For CC(/C=C1\SC(=S)N(CC(=O)O)C1=O)=C\c1ccccc1, the AC50 [1] was > 30 µM, the AC50 [2] was > 30 µM and the AC50 (Bile acid receptor) was 4 µM.

In the case of CC1(C)S[C@@H]2[C@H](NC(=O)[C@H](N)c3ccc(O)cc3)C(=O)N2[C@H]1C(=O)O [AMOXICILLIN], the AC50 [1] is reported as 18 µM, the AC50 (D(1B) dopamine receptor) is reported as > 10 µM and the AC50 (Androgen receptor) is reported as > 30 µM. For the same compound, the AC50 [3] was > 10 µM, the AC50 [2] was > 30 µM and the AC50 (Bile acid receptor) was > 30 µM. For the same compound, the AC50 [4] was > 10 µM.

For O=C1CN2Cc3c(ccc(Cl)c3Cl)N=C2N1 [ANAGRELIDE], the AC50 (Androgen receptor) was > 30 µM and the AC50 [5] was > 10 µM.

For CCc1oc2ccccc2c1C(=O)c1cc(Br)c(O)c(Br)c1 [BENZBROMARONE], the AC50 (Androgen receptor) was > 10 µM.

For [H]/N=C(\N/C(=N/[H])NCCCCCCNC(=N)NC(=N)Nc1ccc(Cl)cc1)Nc1ccc(Cl)cc1 [CHLORHEXIDINE], the AC50 (Androgen receptor) was > 30 µM.

In the case of COC(=O)[C@H](c1ccccc1Cl)N1CCc2sccc2C1 [CLOPIDOGREL], the AC50 (D(1B) dopamine receptor) is reported as > 10 µM, the AC50 [3] is reported as > 10 µM and the AC50 [4] is reported as > 10 µM.

In the case of Cc1cnc(NC(=O)C2=C(O)c3ccccc3S(=O)(=O)N2C)s1 [MELOXICAM], the AC50 (D(1B) dopamine receptor) is reported as > 10 µM, the AC50 [3] is reported as > 10 µM and the AC50 [4] is reported as > 10 µM.

With CN(C)c1cc(CNCC(C)(C)C)c(O)c2c1C[C@H]1C[C@H]3[C@H](N(C)C)C(O)=C(C(N)=O)C(=O)[C@@]3(O)C(O)=C1C2=O [OMADACYCLINE] the AC50 [3] was > 30 µM.

With CNC[C@H](O)c1cccc(O)c1 [PHENYLEPHRINE] the AC50 [5] was > 10 µM.

With CC(C)C[C@H](CN)CC(=O)O [PREGABALIN] the AC50 [5] was > 10 µM.

For CNC(=O)c1cc(Oc2ccc(NC(=O)Nc3ccc(Cl)c(C(F)(F)F)c3)c(F)c2)ccn1 [REGORAFENIB], the AC50 [1] was > 30 µM, the AC50 [2] was > 30 µM and the AC50 (Bile acid receptor) was > 30 µM.

With CCOc1cc(CC(=O)N[C@@H](CC(C)C)c2ccccc2N2CCCCC2)ccc1C(=O)O [REPAGLINIDE] the AC50 [1] was > 30 µM, the AC50 [2] was > 30 µM and the AC50 (Bile acid receptor) was 27 µM.

For CCCN(CCC)CCc1cccc2c1CC(=O)N2 [ROPINIROLE], the AC50 [5] was > 10 µM.

With CCCCNc1ccc(C(=O)OCCN(C)C)cc1 [TETRACAINE] the AC50 (D(1B) dopamine receptor) was > 10 µM, the AC50 [3] was > 10 µM and the AC50 [4] was > 10 µM.

CC1(C)O[C@@H]2[C@@H](CO[C@@]3(COS(N)(=O)=O)OC(C)(C)O[C@@H]23)O1 [TOPIRAMATE] was tested, and the AC50 [5] was > 10 µM.
